Data: ChEMBL document CHEMBL5532677, “From Hit to Lead: Structure-Based Optimization of Novel Selective Inhibitors of Receptor-Interacting Protein Kinase 1 (RIPK1) for the Treatment of Inflammatory Diseases” (J Med Chem, 2024)
Active and inactive are the calls of the source. The calls are words filed in the database; no cut-off is given here.

Legend:
Assay type in all cases: functional, organism-based
Conditions in all cases: route top, time 7.0 day
[1] = test system: Mus musculus; test: Anti-inflammatory activity in BALB/c mouse model of IMQ-induced psoriasis assessed as reduction in PASI score at 100 mg administered topically as 0.005% ointment measured daily for 7 days by H and E staining based analysis
[2] = test system: Mus musculus; test: Anti-inflammatory activity in BALB/c mouse model of IMQ-induced psoriasis assessed as improvement in erythema at 100 mg administered topically as 0.005% ointment measured daily for 7 days by H and E staining based analysis
[3] = test system: Mus musculus; test: Anti-inflammatory activity in BALB/c mouse model of IMQ-induced psoriasis assessed as improvement in skin thickening at 100 mg administered topically as 0.005% ointment measured daily for 7 days by H and E staining based analysis

SMILES: C=C1/C(=C\C=C2/CCC[C@]3(C)[C@@H]([C@H](C)/C=C/[C@@H](O)C4CC4)CC[C@@H]23)C[C@@H](O)C[C@@H]1O
- Activity [1]: Active
- Activity [2]: inactive
- Activity [3]: inactive
